One compound from ChEMBL document CHEMBL1134875, “Binding modes of two novel dinucleotide inhibitors of HIV-1 integrase” (Bioorg Med Chem Lett, 2002) can be followed below.

For experiment [1], the target named is T1, Human immunodeficiency virus type 1 integrase (Human immunodeficiency virus 1, UniProt Q7ZJM1). As to the kind of experiment: Compound was tested for the inhibition HIV integrase 3'-processing activity.
In experiment [2] the target is T1, Human immunodeficiency virus type 1 integrase. The experiment can be described thus: Compound was tested for the inhibition HIV integrase strand transfer activity.

T1 sequence (Q7ZJM1 whole entry): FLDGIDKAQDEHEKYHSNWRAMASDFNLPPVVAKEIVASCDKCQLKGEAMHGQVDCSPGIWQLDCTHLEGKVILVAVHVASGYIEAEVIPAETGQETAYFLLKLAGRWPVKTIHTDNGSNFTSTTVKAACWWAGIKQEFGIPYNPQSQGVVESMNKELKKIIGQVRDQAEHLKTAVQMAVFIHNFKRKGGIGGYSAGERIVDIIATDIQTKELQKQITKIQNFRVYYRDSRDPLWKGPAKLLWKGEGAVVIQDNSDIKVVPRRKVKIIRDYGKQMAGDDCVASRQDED

With `Nc1ccn([C@H]2C[C@@H](O)[C@@H](COP(=O)(O)O[C@@H]3[C@H](COP(=O)(O)O)OC[C@@H]3n3cnc4c(N)ncnc43)O2)c(=O)n1`, the IC50 (commonly the midpoint of a concentration-inhibition curve) in experiment [1] turned out to be 19 µM; in experiment [2], 25 µM.
